In patent US6090834A, “Substituted oxazoles for the treatment of inflammation” (G.D. Searle & Co., priority 1998, dated 2000):

Assays:
[1] = test system: COX-2; assay: COX-2 activity in vitro (PGE2 formed, ELISA); format: biochemical, human or murine; conditions: recombinant enzyme, arachidonic acid 10 μM, pH 8.0; read-out: COX II ID50
Procedure: (§1) Evaluation of COX I and COX II activity in vitro
(§2) The COX-2 inhibition activity of the compounds of this invention illustrated in the Examples was determined by the following methods. a. Preparation of recombinant COX baculoviruses
(§3) Recombinant COX-1 and COX-2 were prepared as described by Gierse et al, [J. Biochem., 305, 479-84 (1995)]. A 2.0 kb fragment containing the coding region of either human or murine COX-1 or human or murine COX-2 was cloned into a BamH1 site of the baculovirus transfer vector pVL1393 (Invitrogen) to generate the baculovirus transfer vectors for COX-1 and COX-2 in a manner similar to the method of D. R. O'Reilly et al (Baculovirus Expression Vectors: A Laboratory Manual (1992)). Recombinant baculoviruses were isolated by transfecting 4 μg of baculovirus transfer vector DNA into SF9 insect cells (2×10^8) along with 200 ng of linearized baculovirus plasmid DNA by the calcium phosphate method. See M. D. Summers and G. E. Smith, A Manual of Methods for Baculovirus vectors and Insect Cell Culture Procedures, Texas Agric. Exp. Station Bull. 1555 (1987). Recombinant viruses were purified by three rounds of plaque purification and high titer (10^7 -10^8 pfu/ml) stocks of virus were prepared. For large scale production, SF9 insect cells were infected in 10 liter fermentors (0.5×10^6 /ml) with the recombinant baculovirus stock such that the multiplicity of infection was 0.1. After 72 hours the cells were centrifuged and the cell pellet homogenized in Tris/Sucrose (50 mM: 25%, pH 8.0) containing 1% 3-[(3-cholamidopropyl)dimethylammonio]-1-propanesulfonate (CHAPS). The homogenate was centrifuged at 10,000×G for 30 minutes, and the resultant supernatant was stored at -80° C. before being assayed for COX activity. […]
(§4) b. Assay for COX-1 and COX-2 activity
(§5) COX activity was assayed as PGE2 formed/μg protein/time using an ELISA to detect the prostaglandin released. CHAPS-solubilized insect cell membranes containing the appropriate COX enzyme were incubated in a potassium phosphate buffer (50 mM, pH 8.0) containing epinephrine, phenol, and heme with the addition of arachidonic acid (10 μM). Compounds were pre-incubated with the enzyme for 10-20 minutes prior to the addition of arachidonic acid. Any reaction between the arachidonic acid and the enzyme was stopped after ten minutes at 37° C./room temperature by transferring 40 μl of reaction mix into 160 μl ELISA buffer and 25 μM indomethacin. The PGE2 formed was measured by standard ELISA technology (Cayman Chemical).

[2] = test system: COX-1; assay: COX-1 activity in vitro (PGE2 formed, ELISA); format: biochemical, human or murine; conditions: recombinant enzyme, arachidonic acid 10 μM, pH 8.0; read-out: COX-1 ID50
Procedure: as §1, §2, §3, §4, §5

| Compound | IC50 [1] [µM] | IC50 [2] [µM] |
| --- | --- | --- |
| CN(C)c1nc(-c2ccccc2)c(-c2ccc(S(N)(=O)=O)cc2)o1 [Example 58, 4-[2-(N,N-dimethylamino)-4-phenyl-5-oxazolyl]benzenesulfonamide] | < 0.1 | 31 |
| NS(=O)(=O)c1ccc(-c2oc(OCC(F)(F)F)nc2-c2ccccc2)cc1 [Example 49] | < 0.1 | 4.1 |
| CN(C)c1ccc(-c2nc(C(F)(F)F)oc2-c2ccc(S(N)(=O)=O)cc2)cc1 [Example 65, 4-[4-Dimethylaminophenyl-2-trifluoromethyl-5-oxazolyl]benzenesulfonamide] | < 0.1 | < 0.1 |
| NS(=O)(=O)c1ccc(-c2oc(CC(=O)O)nc2-c2ccc(Cl)cc2)cc1 [Example 36, [5-(4-aminosulfonylphenyl)-4-(4-chlorophenyl)]-2-oxazoleacetic acid] | 1.4 | 24.7 |
| CCOC(=O)Cc1nc(-c2ccc(S(N)(=O)=O)cc2)c(-c2ccc(OC)c(F)c2)o1 [Example 34, ethyl [4-(4-aminosulfonylphenyl)-5-(3-fluoro-4-methoxyphenyl)]-2-oxazoleacetate] | < 0.1 | 0.2 |
| NS(=O)(=O)c1ccc(-c2oc(CCC(=O)O)nc2-c2ccccc2)cc1 [Example 43, [5-(4-aminosulfonylphenyl)-4-phenyl]-2-oxazolepropionic acid] | 3.1 | 2.3 |
| NS(=O)(=O)c1ccc(-c2oc(CC(=O)O)nc2-c2ccccc2)cc1 [Example 38, [5-(4-aminosulfonylphenyl)-4-phenyl]-2-oxazoleaceticacid] | < 0.1 | 72 |
| 4-[2-methylsulfinyl)-4-phenyl-5-oxazolyl]benzenesulfonamide [Example 52] | – | 35 |
| NS(=O)(=O)c1ccc(-c2ocnc2-c2ccccc2)cc1 [Example 44, 4-[4-phenyl-5-oxazolyl]benzenesulfonamide] | 79 | > 100 |
| 4-[2-(methylsulfonyl)-4-phenyl-5-oxazolyl]benzenesulfonamide [Example 53] | 0.5 | – |
| CSc1nc(-c2ccccc2)c(-c2ccc(S(N)(=O)=O)cc2)o1 [Example 50, 4-[2-Methylthio-4-phenyl-5-oxazolyl]benzenesulfonamide] | < 0.1 | 7.4 |
| CS(=O)(=O)c1ccc(-c2oc(-c3ccccc3)nc2C2CCCCC2)cc1 [Example 25, 4-(cyclohexyl)-5-[4-(methylsulfonyl)phenyl]-2-phenyloxazole] | 0.5 | > 10 |
| COc1c(F)cc(-c2oc(C(F)(F)F)nc2-c2ccc(S(N)(=O)=O)cc2)cc1Br [Example 71, 4-[5-(3-bromo-4-methoxy-5-fluorophenyl)-2-trifluoromethyl-4-oxazolyl]benzenesulfonamide] | 0.1 | 51 |
| NS(=O)(=O)c1ccc(-c2nc(CC(=O)O)oc2-c2ccc(Cl)cc2)cc1 [Example 37, [4-(4-aminosulfonylphenyl)-5-(4-chlorophenyl)]-2-oxazoleacetic acid] | 7 | 3.4 |
| CCOC(=O)c1cccc(Oc2nc(-c3ccccc3)c(-c3ccc(S(N)(=O)=O)cc3)o2)c1 [Example 57, ethyl 3-[[5-(4-aminosulfonylphenyl)-4-phenyl-2-oxazolyl]oxy]benzoate] | < 0.1 | 3.2 |
| COCc1nc(-c2ccccc2)c(-c2ccc(S(N)(=O)=O)cc2)o1 [Example 73, 4-[2-methoxymethyl-4-phenyl-oxazolyl]benzenesulfonamide] | < 0.1 | 47.5 |
| NS(=O)(=O)c1ccc(-c2nc(CC(=O)O)oc2-c2ccc(F)c(Cl)c2)cc1 [Example 39, [4-(4-aminosulfonylphenyl)-5-(3-chloro-4-fluorophenyl)]-2-oxazoleacetic acid] | 79 | > 100 |
| NS(=O)(=O)c1ccc(-c2nc(C(Br)C(=O)O)oc2-c2ccc(Cl)cc2)cc1 (stereo not drawn) [Example 67] | 0.8 | 33 |
| COc1ccc(-c2oc(C)nc2-c2ccc(S(N)(=O)=O)cc2)cc1F [Example 69] | 0.5 | 79 |
